# Literature values in PubChem BioAssay AID493017 (Abbott Labs, 2003).
# pIC50: −log10 of the molar value.
# Molecular target: Cyclin-dependent kinase 2 (Homo sapiens) (UniProt P24941)
# Assay: PubChem AID 493017
# Conditions: WOMBAT literature affinities, multiple human targets; CDK2; gene CDK2; NCBI gene 1017
row,SMILES,pIC50
1,O=C(Nc1ccc(Cl)cc1)c1cc(Br)ccc1NS(=O)(=O)c1ccc(Br)c2nsnc12,5.44
2,Cc1ccc(C(=O)Nc2ccc3c(c2)Cc2cc(NC(=O)c4ccc(C)cc4)ccc2-3)cc1,5.53
3,O=C(Nc1cccc2cccc(NC(=O)c3ccc([N+](=O)[O-])cc3)c12)c1ccc([N+](=O)[O-])cc1,5.53
4,CN1CCc2nc(SCc3ccc(C(C)(C)C)cc3)c(C#N)c(-c3cccs3)c2C1,5.95
5,O=C(CSc1nnc(SCC(=O)Nc2nc(-c3ccccc3)cs2)s1)Nc1nc(-c2ccccc2)cs1,5.88
6,N#CC(=Cc1cc(O)c(O)c(O)c1)C(N)=C(C#N)C#N,5.83
7,O=[N+]([O-])c1ccc(S(=O)(=O)c2ccc(Oc3ccc(S(=O)(=O)c4ccc([N+](=O)[O-])cc4)cc3)cc2)cc1,5.82
8,C#Cc1cccc(N2C(=O)c3ccc(Oc4cccc(N5C(=O)c6ccc([N+](=O)[O-])cc6C5=O)c4)cc3C2=O)c1,5.55
9,CCOC(=O)Nc1nc2ccc(C=Cc3ccc(C)cc3)cc2[nH]1,5.13
10,Cc1ccc(Nc2nc(-c3cc(C(C)(C)C)c(O)c(C(C)(C)C)c3)c(C)s2)cc1,5.91
11,N#Cc1cnc(NC2CCCCC2)nc1N,5.96
12,O=C(Nc1cc([N+](=O)[O-])ccc1O)c1ccc(Oc2ccc(C(=O)Nc3cc([N+](=O)[O-])ccc3O)cc2)cc1,5.94
13,CCC(C)c1cc(N)nc2nc3cc(C)c(C)cc3n12 (centres undefined),5.18
14,CC(=O)c1c(O)c(C)c(O)c(Cc2c(O)c3c(c(C(=O)C=Cc4ccccc4)c2O)OC(C)(C)C=C3)c1O,5.34
15,COC(=O)c1cc(=O)n2c(nc3cc(C(F)(F)F)ccc32)s1,5.11
16,Oc1cc(O)cc(C=Cc2ccc(O)c(O)c2)c1,5.59
17,O=C(Nc1ccc(NC(=O)c2ccccc2[N+](=O)[O-])cc1)c1ccc(NC(=O)c2ccccc2[N+](=O)[O-])cc1,5.86

row,SMILES,pIC50
1,O=C(Cc1nnc(NC(=O)c2ccc([N+](=O)[O-])c(Cl)c2)s1)NNC(=O)c1ccc([N+](=O)[O-])c(Cl)c1,5.92
2,COC(=O)NC1=Nc2cccc3cccc(c23)N1,5.36
3,COC(=O)c1c(NC(=O)Nc2ccc(Cl)cc2)sc2c1CCN(c1ncc(C(F)(F)F)cc1Cl)C2,5.05
4,Cc1cc(Nc2ccc3[nH]ncc3c2)nc(NCC2CC2)n1,5.39
5,O=C(Nc1ccc([N+](=O)[O-])cc1)C(Cc1ccccc1)N1C(=O)c2cccc3cccc(c23)C1=O (centres undefined),5.38
6,O=C1c2ccc([N+](=O)[O-])c3c([N+](=O)[O-])ccc(c23)C(=O)N1c1ccc(S(=O)(=O)Nc2cc(Cl)ccc2O)cc1,5.85
7,Cc1cc(Cc2ccc(NC(N)=S)c(C)c2)ccc1NC(N)=S,5.58
8,c1cnc2nc(-c3ccncc3)[nH]c2c1,5.52
9,Cc1cccc(NC(=O)Nc2ccc(Cc3ccc(NC(=O)Nc4cccc(C)c4)cc3)cc2)c1,5.32
10,CCCCCOC(=O)c1ccc(N2C(=O)c3ccc(Oc4ccc(NC(C)=O)cc4)cc3C2=O)cc1,5.48
11,S=c1[nH]c(=S)c2c3c(sc2[nH]1)CN(Cc1ccccc1)CC3,5.95
12,OCCNc1cc(-c2[nH]c3nccnc3c2-c2ccc(F)cc2)ccn1,5.46
13,c1ccc2c(c1)nc(SC1=NCCCN1)c1c3ccccc3[nH]c21,5.67
14,Nc1nc(NS(=O)(=O)c2ccc(C(F)(F)F)cc2)cc(-c2ccc(F)cc2)n1,5.73
15,Nc1ccc(C(=O)Nc2ccc(-c3nc4ccc(NC(=O)c5ccc(N)cc5)cc4[nH]3)cc2)cc1,5.35
16,O=C(Nc1ccccc1)Nc1sccc1OCc1ccc(Cl)cc1Cl,5.47
17,Cc1nc(N=C(N)NC(=O)Nc2ccc(Cl)cc2)sc1Br,5.54
